Results reported in patent US11357850B2, “Methods for treating breast cancer using INOS-inhibitory compositions” (The Methodist Hospital, priority 2014, dated 2022).

How the values were obtained:
MDA-MB-231 [1] = assay: Cell migration, wound healing assay; format: cell-based, human; settings: 96 hrs treatment, wound healing 12 hrs
Experimental: (§1) FIG. 18A and FIG. 18B show the migration of MDA-MB-231 and SUM159 cells was assessed by “wound healing” assay. Briefly, 3×10^5 cells were plated in a 6-well plate until confluence in growth medium. […] A “wound” was then created in the cell monolayer. Images were taken at 0 and 12 hrs. Wound-healing capacity was determined with the software Image J. Data were replicated in three independent experiments. Results were normalized to vehicle;
(§2) Cell migration capacity. Cell migration was determined with a “wound healing assay.” Briefly, 3×10^5 cells/well were grown in 6-well plates until confluence. […] To avoid an impact on cell proliferation, low serum medium was changed by regular growth medium in presence of inhibitors for 24 hrs (96 hrs total). A “wound” was then created in the cell monolayer with a 100-4, pipette tip. Images were taken at 0 hrs, and cells were allowed to heal the wound for 12 hrs. Wound-healing capacity was determined with the software Image J. Data were replicated in three independent experiments.

SUM159 [2] = assay: Cell migration, wound healing assay; format: cell-based, human; settings: 96 hrs treatment, wound healing 12 hrs
Experimental: as §1, §2

MCF10A = assay: Western blot of PERK/eIF2α/ATF4/ATF3 axis with recombinant TGFβ1; format: cell-based; settings: 1400 W 4 mM co-treatment with recombinant TGFβ1 for 24 hrs
Description: FIG. 3A, FIG. 3B, FIG. 3C, FIG. 3D, FIG. 3E, FIG. 3F, FIG. 3G, FIG. 311, FIG. 3I, and FIG. 3J show iNOS knockdown impairs tumorigenicity and EMT by a dual impact on HIF1α and endoplasmic reticulum (ER) stress/TGFβ/AFT4/ATF3 crosstalk. Proliferation (FIG. 3A), migration (FIG. 3B), and self-renewal capacity (primary and secondary mammospheres) (FIG. 3C) in MDA-MB-231 cells transfected with two different NOS2-directed shRNAs (shRNA1, shRNA2) compared with empty vector (shRNA-EV). […] Selective iNOS inhibition reduced hypoxia (HIF1α), ER stress markers (IRE1α, ATF4) (FIG. 3F), phospho-Smad2/3, Smad2/3 and mature TGFβ protein levels in MDA-MB-231 and SUM159 cells (FIG. 3G). FIG. 3H: Recombinant TGFβ1 (10 ng/mL for 24 hrs) activates the PERK/eIF2α/ATF4/ATF3 axis in MCF10A. […] FIG. 3J: Selective iNOS inhibition is postulated to impair EMT and tumor cell migration by an impact on HIF1α, ER stress (IRE1α/XBP1) and the crosstalk between ATF4, ATF3 and TGFβ. Results were normalized to empty vector. Data are presented as mean±SEM. ****p<0.0001, ***p<0.001, **p<0.01. One-way ANOVA and Bonferroni's post-hoc test;
Western Blot. Cells were cultured at a density of 2.5×10^5 cells/well in 6-well plates with or without iNOS inhibitors for 96 hrs. Cells were resuspended in 1× lysis buffer (Cell Signaling Technology, Inc.) and 1× protease/phosphatase inhibitor cocktail (Thermo Scientific). […]

SUM159 [3] = assay: Western blot of EMT, hypoxia, ER stress and TGFβ markers; format: cell-based, human
Experimental: (§3) Protein levels of iNOS and EMT-inducing factors were determined by Western blot with antibodies against: iNOS (N-20) and Twist1 (L-21) (Santa Cruz Biotechnology), Snail (C15D3), Slug (C19G7) and TCF8/Zeb1 (D80D3) (Cell Signaling) (1:1000 dilution). β-actin (Cell Signaling; 1:2000) was used as loading control;
(§4) Western Blot. […] Cells were resuspended in 1× lysis buffer (Cell Signaling Technology, Inc.) and 1× protease/phosphatase inhibitor cocktail (Thermo Scientific). Samples (30 μg protein) were boiled in 4×LDS sample buffer (Thermo Scientific) containing […] (Sigma-Aldrich) and subjected to SDS-PAGE electrophoresis in 4-20% polyacrylamide gels (Bio-Rad, Hercules, Calif., USA). Proteins were transferred onto nitrocellulose membranes (Bio-Rad) and non-specific binding was avoided incubating with 5% non-fat dry milk in 1×Tris-buffered saline (TBS) for 1 hr. Membranes were incubated overnight at 4° C. with primary antibodies (1:1,000 dilution; anti-β-Actin, 1:2,000 dilution). After washing and incubation with the appropriate secondary antibodies for 1 hr (1:2,000 dilution), membranes were washed and incubated with enhanced chemiluminescence substrate. Protein bands were developed in autoradiography films (Denville Scientific, Inc., Holliston, Mass., USA).

MDA-MB-231 [4] = assay: Western blot / RT-PCR of EMT, hypoxia, ER stress and TGFβ markers; format: cell-based, human
Experimental: as §3, §4
RT-PCR Analysis of Spliced XBP1. […] The PCR amplification (50 ng cDNA) was done with […] Taq DNA polymerase (native, 5 U/μL), 0.2 mM dNTP, 1.5 mM MgCl2 (50 mM) and 0.5 μM of each primer.

[5] = test system: adenoid cystic carcinoma of the oral cavity; settings: mouse, in vivo; cited from earlier work
HRT-18 cells = settings: daily treatment with 500 μM; cited from earlier work
[6] = millimolar and micromolar concentrations, 96 hrs

## CC(=N)NCc1cccc(CN)c1 [1400 W, N-[[3-(aminomethyl)phenyl]methyl]-ethanimidamide]
MDA-MB-231 [1]; micromolar range
  migration: marked dose-dependent decrease in migration
MDA-MB-231 [1]; millimolar range
  migration: marked dose-dependent decrease in migration
SUM159 [2]; micromolar range
  migration: marked dose-dependent decrease in migration
SUM159 [2]; millimolar range
  migration: marked dose-dependent decrease in migration
MCF10A
  stimulation of ATF4 and ATF3 protein levels by TGFβ1: inhibit the stimulation of ATF4 and ATF3 protein levels
SUM159 [3]; 96 hrs
  hypoxia (HIF1α): dose-dependent decrease
SUM159 [3]; absence of recombinant TGFβ1
  TGFβ signaling (phospho-Smad2/3, Smad2/3 and mature TGFβ): inhibit TGFβ signaling
SUM159 [3]; [6]
  protein levels of the EMT transcription factors Snail, Slug, and Twist1: reduction in protein levels
SUM159 [3]; millimolar concentrations
  Zeb1 protein levels: decreased
SUM159 [3]; splicedXBP1 was not detected in SUM159 cells
  ER stress markers IRE1α and ATF4: dose-dependent decrease
MDA-MB-231 [4]; 96 hrs
  ER stress markers IRE1α/splicedXBP1 and ATF4: dose-dependent decrease
  hypoxia (HIF1α): dose-dependent decrease
MDA-MB-231 [4]; absence and presence of recombinant TGFβ1 (10 ng/mL for 72 hrs)
  TGFβ signaling (phospho-Smad2/3, Smad2/3 and mature TGFβ): inhibit TGFβ signaling
MDA-MB-231 [4]; [6]
  protein levels of the EMT transcription factors Snail, Slug, and Twist1: reduction in protein levels
MDA-MB-231 [4]; millimolar concentrations
  Zeb1 protein levels: decreased
[5]
  spontaneous lung metastasis: markedly inhibit spontaneous lung metastasis
HRT-18 cells
  invasiveness: substantially decreased
